21 compounds from patent publication US10285983B2, “3-(1H-pyrrolo[2,3-B]pyridin-2-yl)-1H-pyrazolo[3,4-B] pyridines and therapeutic uses thereof” (Samumed, LLC, priority 2015, dated 2019) can be followed below.

Where only a bound is given, the exact number is not on record here.

The test system of this assay is Wnt activity (Sp5-Luc reporter, SW480 colon carcinoma cells). Description: Wnt activity screening assay, Sp5-Luc reporter gene in SW480 cells. Format: cell-based. The settings on record: Homo sapiens; for inhibition at 10 µM: given for EC50 >10 μM, read-out: percent inhibition at 10 μM; for EC50: overnight incubation. The source says: The screening assay for Wnt activity is described as follows. Reporter cell lines can be generated by stably transducing cancer cell lines (e.g., colon cancer) or primary cells (e.g., IEC-6 intestinal cells) with a lentiviral construct that includes a Wnt-responsive promoter driving expression of the firefly luciferase gene.
SW480 colon carcinoma cells were transduced with a lentiviral vector expressing luciferase with a human Sp5 promoter consisting of a sequence of eight TCF/LEF binding sites. SW480 cells stably expressing the Sp5-Luc reporter gene and a hygromycin resistance gene were selected by treatment with 150 μg/mL of hygromycin for 7 days. These stably transduced SW480 cells were expanded in cell culture and used for all further screening activities. Each compound was dissolved in DMSO as a 10 mM stock and used to prepare compound source plates. Serial dilution (1:3, 10-point dose-response curves starting from 10 μM) and compound transfer was performed using the ECHO 550 (Labcyte, Sunnyvale, Calif.) into 384-well white solid bottom assay plates (Greiner Bio-One) with appropriate DMSO backfill for a final DMSO concentration of 0.1%. For Sp5-Luc reporter gene assays, the cells were plated at 4,000 cells/well in 384-well plates with medium containing 1% fetal bovine serum and incubated overnight at 37° C. and 5% CO2. Following incubation, 20 μl of BrightGlo luminescence reagent (Promega) was added to each well of the 384-well assay plates. The plates were placed on an orbital shaker for 2 min and then luminescence was quantified using the Envision (Perkin Elmer) plate reader. Readings were normalized to DMSO only treated cells, and normalized activities were utilized for EC50 calculations using the dose-response log (inhibitor) vs. response—variable slope (four parameters) nonlinear regression feature available in GraphPad Prism 5.0 (or Dotmatics). For EC50 of >10 μM, the percent inhibition at 10 μM is provided.
On the technique in general: Reporter assays use an easily measured gene product as a stand-in for the process of interest.

Take `c1ncc(-c2cnc3[nH]nc(-c4cc5c(N6CCCCC6)ccnc5[nH]4)c3c2)cn1` [Compound 195, 3-(4-(Piperidin-1-yl)-1H-pyrrolo[2,3-b]pyridin-2-yl)-5-(pyrimidin-5-yl)-1H-pyrazolo[3,4-b]pyridine]: the inhibition at 10 µM was found to be 6.9% and the EC50 is > 10 µM.

For the compound `Oc1cncc(-c2cnc3[nH]nc(-c4cc5c(-c6ccc(F)cc6)ccnc5[nH]4)c3c2)c1` [Compound 533, 5-(3-(4-(4-Fluorophenyl)-1H-pyrrolo[2,3-b]pyridin-2-yl)-1H-pyrazolo[3,4-b]pyridin-5-yl)pyridin-3-ol], the inhibition at 10 µM was found to be 3.4% and the EC50 is > 10 µM.

As for `CN(C)CCOc1cncc(-c2cnc3[nH]nc(-c4cc5c(-c6cccnc6)ccnc5[nH]4)c3c2)c1` [Compound 563, N,N-dimethyl-2-((5-(3-(4-(pyridin-3-yl)-1H-pyrrolo[2,3-b]pyridin-2-yl)-1H-pyrazolo[3,4-b]pyridin-5-yl)pyridin-3-yl)oxy)ethan-1-amine], the inhibition at 10 µM came to 20.6% and the EC50 was > 10 µM.

`CC(C)(C)CC(=O)Nc1cncc(-c2cnc3[nH]nc(-c4cc5c(-c6ccccc6F)ccnc5[nH]4)c3c2)c1` [Compound 72, N-(5-(3-(4-(2-Fluorophenyl)-1H-pyrrolo[2,3-b]pyridin-2-yl)-1H-pyrazolo [3,4-b]pyridin-5-yl)pyridin-3-yl)-3,3-dimethylbutanamide]: the inhibition at 10 µM is 16% and the EC50 was > 10 µM.

For `O=C(Nc1cncc(-c2cnc3[nH]nc(-c4cc5c(-c6cccc(F)c6)ccnc5[nH]4)c3c2)c1)c1ccccc1` [Compound 11, N-(5-(3-(4-(3-Fluorophenyl)-1H-pyrrolo[2,3-b]pyridin-2-yl)-1H-pyrazolo [3,4-b]pyridin-5-yl)pyridin-3-yl)benzamide], the inhibition at 10 µM is 10% and the EC50 was > 10 µM.

For `O=C(Nc1cncc(-c2cnc3[nH]nc(-c4cc5c(-c6cccc(F)c6)ccnc5[nH]4)c3c2)c1)C1CC1` [Compound 20, N-(5-(3-(4-(3-Fluorophenyl)-1H-pyrrolo[2,3-b]pyridin-2-yl)-1H-pyrazolo [3,4-b]pyridin-5-yl)pyridin-3-yl)cyclopropanecarboxamide], the inhibition at 10 µM stood at 57.3% and the EC50 is > 10 µM.

Take `O=C(Nc1cncc(-c2cnc3[nH]nc(-c4cc5c(-c6cccs6)ccnc5[nH]4)c3c2)c1)C1CC1` [Compound 356, N-(5-(3-(4-(Thiophen-2-yl)-1H-pyrrolo[2,3-b]pyridin-2-yl)-1H-pyrazolo[3,4-b]pyridin-5-yl)pyridin-3-yl)cyclopropanecarboxamide]: the EC50 was determined as 6.37 µM.

Regarding `CN1CCN(c2ccnc3[nH]c(-c4n[nH]c5ncc(-c6cncc(NC(=O)C7CCCCC7)c6)cc45)cc23)CC1` [Compound 247, N-(5-(3-(4-(4-Methylpiperazin-1-yl)-1H-pyrrolo[2,3-b]pyridin-2-yl)-1H-pyrazolo[3,4-b]pyridin-5-yl)pyridin-3-yl)cyclohexanecarboxamide], the inhibition at 10 µM was 6.4% and the EC50 is > 10 µM.

On to `CC(C)C(=O)Nc1cncc(-c2cnc3[nH]nc(-c4cc5c(-c6ccccc6F)ccnc5[nH]4)c3c2)c1` [Compound 65, N-(5-(3-(4-(2-Fluorophenyl)-1H-pyrrolo[2,3-b]pyridin-2-yl)-1H-pyrazolo [3,4-b]pyridin-5-yl)pyridin-3-yl)isobutyramide], for which the inhibition at 10 µM is 30.8% and the EC50 is > 10 µM.

Regarding `c1cc(-c2cnc3[nH]nc(-c4cc5c(-c6ccncc6)ccnc5[nH]4)c3c2)ccn1` [Compound 130, 5-(Pyridin-4-yl)-3-(4-(pyridin-4-yl)-1H-pyrrolo[2,3-b]pyridin-2-yl)-1H-pyrazolo[3,4-b]pyridine], the inhibition at 10 µM was determined as 6.3% and the EC50 was > 10 µM.

`O=C(Nc1cncc(-c2cnc3[nH]nc(-c4cc5cccnc5[nH]4)c3c2)c1)C1CCCC1` [Compound 274, N-(5-(3-(1H-Pyrrolo[2,3-b]pyridin-2-yl)-1H-pyrazolo[3,4-b]pyridin-5-yl)pyridin-3-yl)cyclopentanecarboxamide]: the inhibition at 10 µM came out at 40.3% and the EC50 is > 10 µM.

For `Fc1cccc(-c2ccnc3[nH]c(-c4n[nH]c5ncc(-c6cccnc6)cc45)cc23)c1` [Compound 4, 3-(4-(3-Fluorophenyl)-1H-pyrrolo[2,3-b]pyridin-2-yl)-5-(pyridin-3-yl)-1H-pyrazolo[3,4-b]pyridine], the inhibition at 10 µM amounted to 7.6% and the EC50 was > 10 µM.

Turning to `CC(C)(C)C(=O)Nc1cncc(-c2cnc3[nH]nc(-c4cc5c(N6CCCCC6)ccnc5[nH]4)c3c2)c1` [Compound 176, N-(5-(3-(4-(Piperidin-1-yl)-1H-pyrrolo[2,3-b]pyridin-2-yl)-1H-pyrazolo[3,4-b]pyridin-5-yl)pyridin-3-yl)pivalamide], the inhibition at 10 µM turned out to be 5% and the EC50 is > 10 µM.

Consider `CC(C)C(=O)Nc1cncc(-c2cnc3[nH]nc(-c4cc5c(-c6cccnc6)ccnc5[nH]4)c3c2)c1` [Compound 93, N-(5-(3-(4-(Pyridin-3-yl)-1H-pyrrolo[2,3-b]pyridin-2-yl)-1H-pyrazolo[3,4-b]pyridin-5-yl)pyridin-3-yl)isobutyramide], for which the inhibition at 10 µM was 15.4% and the EC50 was > 10 µM.

Consider `O=C(Nc1cncc(-c2cnc3[nH]nc(-c4cc5c(-c6ccncc6)ccnc5[nH]4)c3c2)c1)C1CCCCC1` [Compound 135, N-(5-(3-(4-(Pyridin-4-yl)-1H-pyrrolo[2,3-b]pyridin-2-yl)-1H-pyrazolo[3,4-b]pyridin-5-yl)pyridin-3-yl)cyclohexanecarboxamide], for which the inhibition at 10 µM is 16.4% and the EC50 is > 10 µM.

In the case of `c1cncc(-c2cnc3[nH]nc(-c4cc5c(-c6cccnc6)ccnc5[nH]4)c3c2)c1` [Compound 88, 5-(Pyridin-3-yl)-3-(4-(pyridin-3-yl)-1H-pyrrolo[2,3-b]pyridin-2-yl)-1H-pyrazolo[3,4-b]pyridine], the inhibition at 10 µM amounted to 17% and the EC50 is > 10 µM.

`CN(C)CCNc1cc(F)cc(-c2ccnc3[nH]c(-c4n[nH]c5ncc(-c6cncc(NC(=O)C7CCC7)c6)cc45)cc23)c1` [Compound 469, N-(5-(3-(4-(3-((2-(Dimethylamino)ethyl)amino)-5-fluorophenyl)-1H-pyrrolo [2,3-b]pyridin-2-yl)-1H-pyrazolo[3,4-b]pyridin-5-yl)pyridin-3-yl)cyclobutanecarboxamide]: the inhibition at 10 µM worked out at 47.5% and the EC50 was > 10 µM.

As to `c1ccc(-c2cnc3[nH]nc(-c4cc5c(-c6ccncc6)ccnc5[nH]4)c3c2)nc1` [Compound 140, 5-(Pyridin-2-yl)-3-(4-(pyridin-4-yl)-1H-pyrrolo[2,3-b]pyridin-2-yl)-1H-pyrazolo[3,4-b]pyridine], the inhibition at 10 µM amounted to 12.3% and the EC50 is > 10 µM.

With `CCCC(=O)Nc1cncc(-c2cnc3[nH]nc(-c4cc5c(N6CCCCC6)ccnc5[nH]4)c3c2)c1` [Compound 185, N-(5-(3-(4-(Piperidin-1-yl)-1H-pyrrolo[2,3-b]pyridin-2-yl)-1H-pyrazolo[3,4-b]pyridin-5-yl)pyridin-3-yl)butyramide], the inhibition at 10 µM amounted to 10.9% and the EC50 is > 10 µM.

`O=C(Nc1cncc(-c2cnc3[nH]nc(-c4cc5c(-c6ccc(F)cc6)ccnc5[nH]4)c3c2)c1)C1CCCCC1` [Compound 51, N-(5-(3-(4-(4-Fluorophenyl)-1H-pyrrolo[2,3-b]pyridin-2-yl)-1H-pyrazolo [3,4-b]pyridin-5-yl)pyridin-3-yl)cyclohexanecarboxamide]: the inhibition at 10 µM turned out to be 14.2% and the EC50 is > 10 µM.

For `Fc1cccc(-c2ccnc3[nH]c(-c4n[nH]c5ncc(-c6ccncc6)cc45)cc23)c1` [Compound 18, 3-(4-(3-Fluorophenyl)-1H-pyrrolo[2,3-b]pyridin-2-yl)-5-(pyridin-4-yl)-1H-pyrazolo[3,4-b]pyridine], the inhibition at 10 µM is 11.7% and the EC50 is > 10 µM.

Broadly, the inhibition is the drop in the measured response relative to a control, in per cent. The term EC50 denotes the midpoint of the concentration-response curve. Low readings indicate an effect from little substance, high ones a need for much substance.
